Data on ten molecules can be found in ChEMBL document CHEMBL1201862, “PubChem BioAssay data set” (2004).

Among the test systems are PC-3; Malme-3M; 786-0; SF-268; EKVX; NCI-H226; BT-549; RXF 393; HOP-92; Hs-578T; SR; UO-31; UACC-62; OVCAR-3; HCT-15; NCI-H460; KM12; SK-MEL-5; MOLT-4; LOX IMVI.
What all share (assay): growth of human tumour cells (NCI), 48 h

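Test compounds were applied to cells in 96-well plates for 48 hours at 5 doses. The concentration for 50% growth inhibition is given as GI50.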 The source made the active and inactive calls. Rule as the data show it: active = GI50 up to about 1.1 µM and inactive = higher. Peptide text beside a SMILES is read from it. * marks the point of attachment. Cbz = O=C(OCc1ccccc1)* Some results are limits rather than exact numbers.

In the case of `O=C(O)CCC(NC(=O)OCc1ccccc1)C(=O)NC(Cc1c[nH]cn1)C(=O)O` (stereo not drawn) (Cbz-Glu-His-OH; configuration not given here), the GI50 in the assay with PC-3, with Malme-3M, with 786-0, in the assay with SF-268, in the assay on EKVX and in the assay on NCI-H226 was > 100 µM (inactive) in each case. Further, the GI50 in the assay with BT-549, in the assay on RXF 393, in the assay on HOP-92, in the assay on Hs-578T, with SR and in the assay on UO-31 was > 100 µM (inactive) throughout. Also, the GI50 in the assay with UACC-62 was > 100 µM (inactive); in the assay on OVCAR-3, > 100 µM (inactive); in the assay on HCT-15, above 100 µM; with NCI-H460 it was > 100 µM (inactive); in the assay with KM12, > 100 µM (inactive); with SK-MEL-5, > 100 µM (inactive). Also, the GI50 in the assay on MOLT-4 and with LOX IMVI was > 100 µM (inactive) in each case.
With `CC(CO)[C@H]1OC(=O)C=C2[C@@]13O[C@@H]3[C@H]1OC(=O)[C@@]3(C)[C@H]4O[C@H]4C[C@@]2(C)[C@@H]13` (stereo not given in full), the GI50 with PC-3 was 2.96 µM (inactive); in the assay on Malme-3M it was 2.13 µM (inactive); with 786-0 it was 1.57 µM (inactive); in the assay on SF-268 it was 0.973 µM (active); with EKVX, 2.64 µM (inactive); in the assay on NCI-H226, 1.27 µM (inactive). The GI50 in the assay on BT-549 is 2.11 µM (inactive); in the assay with RXF 393, 1.62 µM (inactive); in the assay on HOP-92, 2.71 µM (inactive); in the assay with Hs-578T it was 2.52 µM (inactive); with SR it was 0.288 µM (active); in the assay with UO-31 it was 1.73 µM (inactive). Also, the GI50 in the assay on UACC-62 is 1.16 µM (inactive); in the assay with OVCAR-3, 2.17 µM (inactive); in the assay with HCT-15, 0.914 µM; in the assay with NCI-H460, 0.583 µM (active); in the assay with KM12 it was 1.19 µM (inactive); with SK-MEL-5 it was 0.8 µM (active). The GI50 in the assay on MOLT-4 is 0.488 µM (active); in the assay with LOX IMVI, 0.249 µM (active).
Consider `COc1ccc(/C=C2\CCC(C)(CN(C)C)C2=O)cc1Br` (stereo not given), for which the GI50 was 20.4 µM (inactive) with PC-3; 25.8 µM (inactive) with Malme-3M; 19.6 µM (inactive) in the assay on 786-0; 16.5 µM (inactive) with SF-268; 10.2 µM (inactive) in the assay on EKVX; 18.9 µM (inactive) in the assay on NCI-H226. In addition, the GI50 in the assay on BT-549 was 16 µM (inactive); with RXF 393, 17.9 µM (inactive); in the assay with HOP-92, 29.9 µM (inactive); in the assay on Hs-578T, 30.5 µM (inactive); in the assay on SR, 19.1 µM (inactive); in the assay with UO-31, 18.1 µM (inactive). Moreover, the GI50 was 4.03 µM (inactive) with UACC-62; 18.2 µM (inactive) in the assay on OVCAR-3; 16.9 µM in the assay on HCT-15; 26.7 µM (inactive) in the assay with NCI-H460; 14 µM (inactive) in the assay with KM12; 14.8 µM (inactive) in the assay with SK-MEL-5. Besides, the GI50 was 20.3 µM (inactive) in the assay with MOLT-4 and 18.2 µM (inactive) with LOX IMVI.
Regarding `CCCCCCCC(=O)N/N=C/c1ccc(Sc2nccn2C)c([N+](=O)[O-])c1`, the GI50 with PC-3 is 15.6 µM (inactive); in the assay with Malme-3M, 14.4 µM (inactive); in the assay on 786-0, 14.9 µM (inactive); with SF-268, 15.7 µM (inactive); with EKVX it was 14.7 µM (inactive); in the assay on NCI-H226, 14.5 µM (inactive). Moreover, the GI50 in the assay with BT-549 is 16.1 µM (inactive); in the assay on RXF 393 it was 14.7 µM (inactive); with HOP-92, 3.33 µM (inactive); with Hs-578T, 18.5 µM (inactive); in the assay on SR it was 18.8 µM (inactive); in the assay on UO-31, 10.3 µM (inactive). For the same molecule, the GI50 in the assay with UACC-62 was 13 µM (inactive); in the assay on OVCAR-3 it was 15.6 µM (inactive); with HCT-15, 14.5 µM; in the assay with NCI-H460, 14.9 µM (inactive); in the assay on KM12 it was 14.1 µM (inactive); in the assay with SK-MEL-5 it was 12.9 µM (inactive). Besides, the GI50 was 11.4 µM (inactive) with MOLT-4 and 10.4 µM (inactive) in the assay on LOX IMVI.
Turning to `CN(C)c1ccc(/C=C/C(=O)c2ccc(O)cc2)cc1`, the GI50 in the assay on PC-3 is 14.8 µM (inactive); with Malme-3M, 8.45 µM (inactive); in the assay on 786-0 it was 7.64 µM (inactive); with SF-268, 15.4 µM (inactive); in the assay on EKVX, 31.3 µM (inactive); in the assay on NCI-H226, 56.4 µM (inactive). Also, the GI50 is 6.08 µM (inactive) with BT-549; 6.27 µM (inactive) in the assay on RXF 393; 38.2 µM (inactive) in the assay with HOP-92; 17.4 µM (inactive) in the assay on Hs-578T; 0.33 µM (active) in the assay on SR; 14.4 µM (inactive) in the assay on UO-31. The GI50 with UACC-62 was 4.08 µM (inactive); in the assay with OVCAR-3, 2.9 µM (inactive); with HCT-15, 2.94 µM; with NCI-H460, 4.72 µM (inactive); with KM12 it was 3.25 µM (inactive); in the assay with SK-MEL-5, 6.58 µM (inactive). For the same molecule, the GI50 is 2.64 µM (inactive) in the assay on MOLT-4 and 6.35 µM (inactive) in the assay on LOX IMVI.
On to `C=CC1(CC/C(=C\[N+](=O)[O-])c2ccc(OC)c(OC)c2)OCC(C)(C)CO1`, for which the GI50 in the assay on PC-3 was 25.6 µM (inactive); with Malme-3M, 23.2 µM (inactive); in the assay on 786-0 it was 17.1 µM (inactive); with SF-268 it was 16 µM (inactive); with EKVX, 18 µM (inactive); with NCI-H226 it was 16.4 µM (inactive). Also, the GI50 was 13.8 µM (inactive) in the assay on BT-549; 12.9 µM (inactive) in the assay on RXF 393; 18.2 µM (inactive) with HOP-92; 24 µM (inactive) with Hs-578T; 3.61 µM (inactive) in the assay with SR; 15.1 µM (inactive) in the assay on UO-31. In addition, the GI50 in the assay on UACC-62 was 13.2 µM (inactive); with OVCAR-3, 20.6 µM (inactive); in the assay on HCT-15 it was 12.7 µM; in the assay on NCI-H460, 18.2 µM (inactive); with KM12, 15.5 µM (inactive); in the assay on SK-MEL-5, 13.1 µM (inactive). For the same molecule, the GI50 was 1.46 µM (inactive) in the assay on MOLT-4 and 12.8 µM (inactive) with LOX IMVI.
Regarding `CNS(=O)(=O)c1ccccc1C(=N)c1ccccc1`, the GI50 in the assay with PC-3, in the assay on Malme-3M, in the assay with 786-0, in the assay with SF-268, in the assay with EKVX and in the assay on NCI-H226 was > 100 µM (inactive) in each case. Moreover, the GI50 in the assay on BT-549, in the assay on RXF 393, with HOP-92, in the assay on Hs-578T, with SR and in the assay with UO-31 was > 100 µM (inactive) each time. Further, the GI50 with UACC-62 is > 100 µM (inactive); in the assay with OVCAR-3, > 100 µM (inactive); in the assay with HCT-15 it was above 100 µM; in the assay with NCI-H460, > 100 µM (inactive); in the assay with KM12 it was > 100 µM (inactive); with SK-MEL-5, > 100 µM (inactive). In addition, the GI50 with MOLT-4 and with LOX IMVI was > 100 µM (inactive) in each case.
In the case of `[O-][n+]1cc(SCc2ccccc2)ncc1SCc1ccccc1`, the GI50 in the assay with PC-3, in the assay with Malme-3M, in the assay with 786-0, in the assay on SF-268, with EKVX and in the assay with NCI-H226 was > 10 µM (inactive) throughout. Moreover, the GI50 in the assay on BT-549 is 0.811 µM (active); in the assay on RXF 393 it was > 10 µM (inactive); in the assay on HOP-92 it was > 10 µM (inactive); in the assay on Hs-578T, > 10 µM (inactive); in the assay on SR, > 10 µM (inactive); in the assay on UO-31 it was > 10 µM (inactive). Also, the GI50 in the assay with UACC-62 was > 10 µM (inactive); in the assay with OVCAR-3, > 10 µM (inactive); in the assay on HCT-15 it was above 10 µM; with NCI-H460, > 10 µM (inactive); in the assay with KM12, > 10 µM (inactive); in the assay on SK-MEL-5, > 10 µM (inactive). In addition, the GI50 with MOLT-4 and with LOX IMVI was > 10 µM (inactive) in each case.
Consider `O=C(Nc1ccccc1C(=O)O)/C(=C/c1ccccc1)NC(=O)c1ccccc1`, for which the GI50 with PC-3, in the assay with Malme-3M, in the assay on 786-0, in the assay with SF-268, in the assay on EKVX and with NCI-H226 was > 100 µM (inactive) throughout. In addition, the GI50 in the assay on BT-549 was > 100 µM (inactive); in the assay on RXF 393, 65.9 µM (inactive); in the assay on HOP-92 it was > 100 µM (inactive); in the assay on Hs-578T, > 100 µM (inactive); with SR, > 100 µM (inactive); in the assay with UO-31, > 100 µM (inactive). In addition, the GI50 with UACC-62 was > 100 µM (inactive); in the assay on OVCAR-3 it was > 100 µM (inactive); with HCT-15, above 100 µM; with NCI-H460, > 100 µM (inactive); in the assay on KM12, > 100 µM (inactive); in the assay on SK-MEL-5, > 100 µM (inactive). Moreover, the GI50 in the assay with MOLT-4 and in the assay with LOX IMVI was > 100 µM (inactive) throughout.
Take `Cc1ccc(-c2nnc(-c3ccc4ccccc4c3)o2)cc1`: the GI50 was 52.2 µM (inactive) in the assay with PC-3; 5.38 µM (inactive) in the assay on Malme-3M; 11.9 µM (inactive) in the assay on 786-0; 9.31 µM (inactive) with SF-268; 40.2 µM (inactive) in the assay with EKVX; 25.2 µM (inactive) in the assay with NCI-H226. Besides, the GI50 in the assay on BT-549 is 13.7 µM (inactive); with RXF 393 it was 5.87 µM (inactive); in the assay with HOP-92, > 51.6 µM (inactive); in the assay on Hs-578T it was 23 µM (inactive); in the assay with SR, 7.36 µM (inactive); with UO-31 it was 15.1 µM (inactive). The GI50 in the assay on UACC-62 is 13 µM (inactive); with OVCAR-3, 99.1 µM (inactive); with HCT-15, above 96.8 µM; in the assay with NCI-H460, 83 µM (inactive); with KM12 it was > 100 µM (inactive); with SK-MEL-5 it was > 96.2 µM (inactive). Besides, the GI50 in the assay on MOLT-4 was 3.13 µM (inactive); in the assay with LOX IMVI it was 11.3 µM (inactive).
